Measurements reported in patent US9765087B2, “Benzimidazole derivatives” (ENANTA PHARMACEUTICALS, INC., priority 2009, dated 2017).
Like-named read-outs stand apart in the source and are kept apart here.

Tested on: HCV 1a genotype replicon
Assay: HCV replicon assay (qRT-PCR or luciferase), genotype 1a
Format: cell-based
Details: Hepatitis C virus
Procedure: HCV replicon cell lines (kindly provided by R. Bartenschlager) isolated from colonies as described by Lohman et. al. (Lohman et al. (1999) Science 285: 110-113, expressly incorporated by reference in its entirety) and used for all experiments. The HCV replicon has the nucleic acid sequence set forth in EMBL Accession No.: AJ242651, the coding sequence of which is from nucleotides 1801 to 8406.
These cell lines were maintained at 37° C., 5% CO2, 100% relative humidity in DMEM (Cat#11965-084, Invitrogen), with 10% fetal calf serum (“FCS”, Invitrogen), 1% non-essential amino acids (Invitrogen), 1% of Glutamax (Invitrogen), 1% of 100× penicillin/streptomycin (Cat#15140-122, Invitrogen) and Geneticin (Cat#10131-027, Invitrogen) at 0.75 mg/ml or 0.5 mg/ml for 11-7 and Huh-luc/neo-ET cells, respectively.
EC50 values of single agent compounds and combinations were determined by HCV RNA detection using quantitative RT-PCR, according to the manufacturer's instructions, with a TAQMAN® One-Step RT-PCR Master Mix Reagents Kit (Cat#AB 4309169, Applied Biosystems) on an ABI Model 7500 thermocycler. The TaqMan primers used for detecting and quantifying HCV RNA were obtained from Integrated DNA Technologies. HCV RNA was normalized to GAPDH RNA levels in drug-treated cells, which is detected and quantified using the Human GAPDH Endogenous Control Mix (Applied Biosystems, AB 4310884E). Total cellular RNA is purified from 96-well plates using the RNAqueous 96 kit (Ambion, Cat# AM1812). Chemical agent cytotoxicity is evaluated using an MTS assay according to the manufacturer's directions (Promega).
Since clinical drug resistance often develops in viral infections following single agent therapies, there is a need to assess the additive, antagonistic, or synergistic properties of combination therapies. We used the HCV replicon system to assess the potential use of the compound of the present invention or in combination therapies with Interferon alpha, cyclosporine analogs and inhibitors targeting other HCV proteins. The acute effects of a single or combinations of drugs are studied in the “Huh-luc/neo-ET” replicon with each chemical agent titrated in an X or Y direction in a 6 point two-fold dilution curve centered around the EC50 of each drug. Briefly, replicon cells are seeded at 7,000 cells per well in 90 ul DMEM (without phenol red, Invitrogen Cat.#31053-036) per well with 10% FCS, 1% non-essential amino acids, 1% of Glutamax and 1% of 100× penicillin/streptomycin and incubated overnight at 37° C., 5% CO2, 100% relative humidity. 16-20 h after seeding cells, test compounds previously solubilized and titrated in dimethyl sulfoxide (“DMSO”) from each X plate and Y plate are diluted 1:100 in DMEM (without phenol red, Invitrogen Cat.#31053-036) with 10% FCS, 1% non-essential amino acids, 1% of Glutamax and 1% of 100× penicillin/streptomycin and added directly to the 96-well plate containing cells and growth medium at a 1:10 dilution for a final dilution of compound and DMSO of 1:1000 ([…] final concentration). Drug treated cells are incubated at 37° C., 5% CO2, 100% relative humidity for 72 hours before performing a luciferase assay using 100 ul per well BriteLite Plus (Perkin Elmer) according to the manufacturer's instructions. Data analysis utilizes the method published by Prichard and Shipman (Antiviral Research, 1990. 14:181-205). Using this method, the combination data are analyzed for antagonistic, additive, or synergistic combination effects across the entire combination surface created by the diluted compounds in combination.
The compounds of the present invention can be effective against the HCV 1b genotype. It should also be understood that the compounds of the present invention can inhibit multiple genotypes of HCV. In one embodiment compound of the present invention are active against the 1a, 1b, 2a, 2b, 3a, 4a, and 5a genotypes. […] EC50 ranges against HCV 1b and 1a are as follows: A>10 nM; B1-10 nM; C<1 nM.

[1] = Table 12, range class, read-out: 1a EC50 Range
[2] = Table 12, numeric values, read-out: 1a EC50

## COC(=O)N[C@H](C(=O)N1CC2(CC2)C[C@H]1c1ncc(-c2ccc(C#Cc3ccc4nc([C@@H]5CC6(CC6)CN5C(=O)[C@@H](NC(=O)OC)C5CC5)[nH]c4c3)cc2)[nH]1)C(C)C [Example 602]
[1]
  EC50: < 1 nM

## COC(=O)N[C@H](C(=O)N1CC2(CC2)C[C@H]1c1nc2ccc(C#Cc3ccc(-c4cnc([C@@H]5C[C@@H](C)CN5C(=O)[C@@H](NC(=O)OC)C5CCOCC5)[nH]4)cc3)cc2[nH]1)C(C)C [Example 603]
[1]
  EC50: < 1 nM

## COC(=O)N[C@H](C(=O)N1CC2(CC2)C[C@H]1c1nc2ccc(C#Cc3ccc(-c4cnc([C@@H]5CCCN5C(=O)[C@H](NC(=O)OC)[C@H](C)c5ccccc5)[nH]4)cc3)cc2[nH]1)C(C)C [Example 604]
[1]
  EC50: > 10 nM

## CC[C@@H](C)[C@H](NC(=O)OC)C(=O)N1CCC[C@H]1c1ncc(-c2ccc(C#Cc3ccc4nc([C@@H]5CC6(CC6)CN5C(=O)[C@@H](NC(=O)OC)C(C)C)[nH]c4c3)cc2)[nH]1 [Example 605]
[1]
  EC50: < 1 nM

## CC[C@@H](C)[C@H](NC(=O)OC)C(=O)N1CC2(CC2)C[C@H]1c1ncc(-c2ccc(C#Cc3ccc4nc([C@@H]5CC6(CC6)CN5C(=O)[C@@H](NC(=O)OC)C(C)C)[nH]c4c3)cc2)[nH]1 [Example 606]
[1]
  EC50: < 1 nM

## COC(=O)N[C@H](C(=O)N1CC2(CC2)C[C@H]1c1nc2ccc(C#Cc3ccc(-c4cnc([C@@H]5CCCN5C(=O)[C@@H](NC(=O)OC)C5CCCCC5)[nH]4)cc3)cc2[nH]1)C(C)C [Example 607]
[1]
  EC50: < 1 nM

## COC(=O)N[C@H](C(=O)N1CCC[C@H]1c1nc(-c2ccc3cc(-c4ccc5[nH]c([C@@H]6CC7(CC7)CN6C(=O)[C@@H](NC(=O)OC)C(C)C)nc5c4)cc(F)c3c2)c[nH]1)C(C)C [Example 608]
[1]
  EC50: < 1 nM

## COC(=O)N[C@H](C(=O)N1CC2(CC2)C[C@H]1c1ncc(-c2ccc(C#Cc3ccc4nc([C@@H]5CC6(CC6)CN5C(=O)[C@@H](NC(=O)OC)c5ccccc5)[nH]c4c3)cc2)[nH]1)c1ccccc1 [Example 609]
[1]
  EC50: 1 to 10 nM

## COC(=O)N[C@H](C(=O)N1CC2(CC2)C[C@H]1c1ncc(-c2ccc(C#Cc3ccc4nc([C@@H]5CC6(CC6)CN5C(=O)[C@H](NC(=O)OC)c5cccnc5)[nH]c4c3)cc2)[nH]1)C(C)C [Example 610]
[1]
  EC50: < 1 nM

## COC(=O)N[C@@H](C(=O)N1CC2(CC2)C[C@H]1c1ncc(-c2ccc(C#Cc3ccc4nc([C@@H]5CC6(CC6)CN5C(=O)[C@H](NC(=O)OC)c5ccc(Cl)cc5)[nH]c4c3)cc2)[nH]1)c1ccc(Cl)cc1 [Example 611]
[1]
  EC50: > 10 nM

## COC(=O)N[C@H](C(=O)N1C[C@]2(CNC(=O)O2)C[C@H]1c1ncc(-c2ccc(C#Cc3ccc4nc([C@@H]5CC6(CC6)CN5C(=O)[C@@H](NC(=O)OC)C(C)C)[nH]c4c3)cc2)[nH]1)C(C)C [Example 617]
read-out: 1a EC50 Range, Table 12, range class
  EC50: 1 to 10 nM

## COC(=O)N[C@@H](CC(N)=O)C(=O)N1CCC[C@H]1c1ncc(-c2ccc(C#Cc3ccc4nc([C@@H]5CC6(CC6)CN5C(=O)[C@@H](NC(=O)OC)C(C)C)[nH]c4c3)cc2)[nH]1 [Example 619]
[2]
  EC50: 0.699 nM

## COC(=O)N[C@@H](CCCCNC(N)=O)C(=O)N1CCC[C@H]1c1nc(-c2ccc(C#Cc3ccc4[nH]c([C@@H]5CC6(CC6)CN5C(=O)[C@@H](NC(=O)OC)C(C)C)nc4c3)cc2)c[nH]1 [Example 620]
[1]
  EC50: < 1 nM

## COC(=O)N[C@H](C(=O)N1CC2(CC2)C[C@H]1c1nc2ccc(C#Cc3ccc(-c4cnc([C@@H]5CC6(CC6)CN5C(=O)[C@@H](N)C(C)C)[nH]4)cc3)cc2[nH]1)C(C)C [Example 624]
[1]
  EC50: > 10 nM

## COC(=O)N[C@H](C(=O)N1CC2(CC2)C[C@H]1c1nc(-c2ccc(C#Cc3ccc4[nH]c([C@@H]5C[C@]6(CCCO6)CN5C(=O)[C@@H](NC(=O)OC)C(C)C)nc4c3)cc2)c[nH]1)C(C)C [Example 626]
[2]
  EC50: 1.34 nM

## COC(=O)N[C@H](C(=O)N1C[C@H](CF)C[C@H]1c1ncc(-c2ccc(C#Cc3ccc4nc([C@@H]5C[C@@]6(CCCO6)CN5C(=O)[C@@H](NC(=O)OC)C(C)C)[nH]c4c3)cc2)[nH]1)C(C)C [Example 634]
[1]
  EC50: < 1 nM

## COC(=O)N[C@H](C(=O)N1CC2(CC2)C[C@H]1c1ncc(-c2ccc(C#Cc3ccc4nc([C@@H]5CC6(CC6)CN5C(=O)[C@H](NC(=O)OC)c5ccc(Cl)cc5)[nH]c4c3)cc2)[nH]1)C(C)C [Example 650]
[2]
  EC50: 0.079 nM

## COC(=O)N[C@H](C(=O)N1CC2(CC2)C[C@H]1c1ncc(-c2ccc(C#Cc3ccc4nc([C@@H]5CC6(CC6)CN5C(=O)[C@H](NC(=O)OC)c5ccccc5Cl)[nH]c4c3)cc2)[nH]1)C(C)C [Example 651]
[1]
  EC50: < 1 nM

## COC(=O)N[C@H](C(=O)N1CC2(CC2)C[C@H]1c1ncc(-c2ccc(C#Cc3ccc4nc([C@@H]5CC6(CC6)CN5C(=O)[C@H](NC(=O)OC)c5ccccc5F)[nH]c4c3)cc2)[nH]1)C(C)C [Example 652]
[1]
  EC50: < 1 nM

## COC(=O)N[C@H](C(=O)N1CC2(CC2)C[C@H]1c1ncc(-c2ccc(C#Cc3ccc4nc([C@@H]5CC6(CC6)CN5C(=O)[C@H](NC(=O)OC)c5cccc(F)c5)[nH]c4c3)cc2)[nH]1)C(C)C [Example 653]
[1]
  EC50: < 1 nM

## COC(=O)N[C@H](C(=O)N1CC2(CC2)C[C@H]1c1ncc(-c2ccc(C#Cc3ccc4nc([C@@H]5CC6(CC6)CN5C(=O)[C@H](NC(=O)OC)c5cccc(OC)c5)[nH]c4c3)cc2)[nH]1)C(C)C [Example 654]
[2]
  EC50: 0.185 nM

## CC[C@H](NC(=O)OC)C(=O)N1CC2(CC2)C[C@H]1c1ncc(-c2ccc(C#Cc3ccc4nc([C@@H]5CC6(CC6)CN5C(=O)[C@H](CC)NC(=O)OC)[nH]c4c3)cc2)[nH]1 [Example 655]
[2]
  EC50: 0.034 nM

## CC[C@@H](C)[C@H](NC(=O)OC)C(=O)N1CC2(CC2)C[C@H]1c1nc2ccc(C#Cc3ccc(-c4cnc([C@@H]5CC6(CC6)CN5C(=O)[C@@H](NC(=O)OC)C(C)C)[nH]4)cc3)cc2[nH]1 [Example 656]
[1]
  EC50: < 1 nM

## COC(=O)N[C@H](C(=O)N1CC2(CC2)C[C@H]1c1nc(-c2ccc(C#Cc3ccc4[nH]c([C@@H]5CC6(CC6)CN5C(=O)[C@@H](NC(=O)OC)C(C)C)nc4c3)cc2)c(Br)[nH]1)C(C)C [Example 657]
[1]
  EC50: < 1 nM

## COC(=O)N[C@H](C(=O)N1CC2(CC2)C[C@H]1c1nc2ccc(C#Cc3ccc(-c4cnc([C@@H]5CC6(CC6)CN5C(=O)[C@@H](NC(=O)OC)C5CCOCC5)[nH]4)cc3)cc2[nH]1)C(C)C [Example 658]
[1]
  EC50: < 1 nM

## COC(=O)N[C@H](C(=O)N1CC2(CC2)C[C@H]1c1nc2ccc(C#Cc3ccc(-c4cnc([C@@H]5C[C@H]6C[C@H]6N5C(=O)[C@H](NC(=O)OC)c5ccccc5)[nH]4)cc3)cc2[nH]1)C(C)C [Example 659]
[1]
  EC50: < 1 nM

## COC(=O)N[C@H](C(=O)N1CC2(CC2)C[C@H]1c1nc(-c2ccc(C#Cc3ccc4[nH]c([C@@H]5CC6(CC6)CN5C(=O)[C@@H](NC(=O)OC)C(C)C)nc4c3)cc2)c(F)[nH]1)C(C)C [Example 660]
[1]
  EC50: < 1 nM

## COC(=O)N[C@H](C(=O)N1CC2(CC2)C[C@H]1c1nc(-c2ccc(C#Cc3ccc4[nH]c([C@@H]5CC6(CC6)CN5C(=O)[C@@H](NC(=O)OC)C(C)C)nc4c3)cc2)c(-c2ccccc2)[nH]1)C(C)C [Example 661]
[2]
  EC50: 0.369 nM

## COC(=O)N[C@H](C(=O)N1CC2(CC2)C[C@H]1c1nc(-c2cccnc2)c(-c2ccc(C#Cc3ccc4nc([C@@H]5CC6(CC6)CN5C(=O)[C@@H](NC(=O)OC)C(C)C)[nH]c4c3)cc2)[nH]1)C(C)C [Example 662]
[1]
  EC50: < 1 nM

## COC(=O)N[C@H](C(=O)N1CC2(CC2)C[C@H]1c1nc2ccc(C#Cc3ccc(-c4cnc([C@@H]5CCCN5C(=O)[C@H](NC(=O)OC)c5cccs5)[nH]4)cc3)cc2[nH]1)C(C)C [Example 663]
[2]
  EC50: 0.295 nM
